# Key:
# [1] = tested on: Orobanche (Orobanche minor) seeds; test: Test for Germination Stimulation Activity on Orobanche; format: in vivo; conditions: conditioned Orobanche minor seeds, 20 μl of 10 μM solution, 30° C., counted 4 days after; no compound: 0%
# Method: (§1) First, 10 μmol of each test compound was weighed and dissolved in 2 ml of acetone. Each solution was diluted with distilled water to obtain a 10 μM solution. Next, a bottom of a petri dish was covered with a filter paper, and conditioned seeds of Orobanche (Orobanche minor) were placed on the filter paper, and then 20 μl of each diluted solution of test compound was applied to the seeds. For maintaining the humidity, a wet filter paper was prepared as long as water droplets were not dripped from the filter paper, and folded into four, and then placed onto the center of the petri dish. The petri dish was sealed with Parafilm®, and then covered with aluminum foil, and then incubated at 30° C. Four (4) days after, the number of germinated seeds was counted, and then a germination rate (%) was calculated by using the following formula: Germination rate(%)=(the number of germinated seeds/the total number of seeds)×100 The test compounds and the germination rates are shown in Tables 3 and 4. When no test compound was used in this test, the germination rate was 0%.
# [2] = tested on: Striga (Striga hermonthica) seeds; test: Test for Germination Stimulation Activity on Striga; format: in vivo; conditions: conditioned Striga hermonthica seeds, 20 μl of 10 μM solution, 30° C., counted 24 hours later; no compound: 0%
# Method: as §1, with “of Striga (Striga hermonthica)” for “of Orobanche (Orobanche minor)”, “C. Twenty four (24) hours later,” for “C. Four (4) days after,”, “Tables 1” for “Tables 3”, “and 2.” for “and 4.”
Structure (SMILES),Germination rate (%) [1],Germination rate (%) [2]
"CC1=CC(SC(=S)N(C)c2ccccc2)OC1=O (stereo not shown) [Compound No. 7, 4-methyl-5-oxo-2,5-dihydrofuran-2-yl methyl(phenyl)dithiocarbamate]",15.3%,32.6%
"CC1=CC(SC(=O)N(C)c2ccccc2)OC1=O (stereo not shown) [Compound No. 8, 4-methyl-5-oxo-2,5-dihydrofuran-2-yl methyl(phenyl)thiolcarbamate]",5.4%,12.0%
"CC1=CC(OC(=O)NCCc2ccc(C)c(C)c2)OC1=O (stereo not shown) [Compound No. 10, 4-methyl-5-oxo-2,5-dihydrofuran-2-yl 2-(3,4-dimethylphenyl)ethylcarbamate]",48.0%,43.0%
"CC1=CC(OC(=O)N(C)c2ccccc2)OC1=O (stereo not shown) [Compound No. 4, 4-methyl-5-oxo-2,5-dihydrofuran-2-yl methyl(phenyl)carbamate]",66.3%,53.5%
"CC1=CC(OC(=O)N(C)Cc2ccccc2)OC1=O (stereo not shown) [Compound No. 5, 4-methyl-5-oxo-2,5-dihydrofuran-2-yl benzyl(methyl)carbamate]",75.2%,48.4%
"CC1=CC(OC(=O)NCc2ccccc2)OC1=O (stereo not shown) [Compound No. 2, 4-methyl-5-oxo-2,5-dihydrofuran-2-yl benzylcarbamate]",61.1%,38.1%
"CC1=CC(OC(=O)NCCc2cccc(C)c2C)OC1=O (stereo not shown) [Compound No. 9, 4-methyl-5-oxo-2,5-dihydrofuran-2-yl 2-(2,3-dimethylphenyl)ethylcarbamate]",54.0%,32.0%
"CC1=CC(OC(=O)Nc2ccccc2)OC1=O (stereo not shown) [Compound No. 1, 4-methyl-5-oxo-2,5-dihydrofuran-2-yl phenylcarbamate]",38.8%,2.6%
"CC1=CC(OC(=O)N(C)CCc2ccccc2)OC1=O (stereo not shown) [Compound No. 6, 4-methyl-5-oxo-2,5-dihydrofuran-2-yl 2-phenethyl(methyl)carbamate]",30.4%,28.0%
"CC1=CC(OC(=O)NCCc2ccccc2)OC1=O (stereo not shown) [Compound No. 3, 4-methyl-5-oxo-2,5-dihydrofuran-2-yl phenethylcarbamate]",66.9%,54.0%
"CC1=CC(OC(=O)NCCc2ccc3c(c2)OCO3)OC1=O (stereo not shown) [Compound No. 11, 4-methyl-5-oxo-2,5-dihydrofuran-2-yl 2-(3,4-methylenedioxyphenyl)ethylcarbamate]",47.0%,37.0%
